Experiments:
Format in all cases: in vivo
[1] = test system: wheat (Triticum aestivum); experiment: Test A postemergence; details: Triticum aestivum, post-emergence, 240 h, Postemergence, read-out: Wheat plant response rating (0 to 100 scale); for plant injury at 125 g/ha: 125 g ai/ha, visual rating about 10 d after treatment; for plant injury at 31 g/ha: 31 g ai/ha, 0 is no effect, 100 is complete control
Procedure, shortened: (§1)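 Seeded soil received test chemicals as a preemergence directed spray, and seedlings at one to two leaves, 2–10 cm tall, received them postemergence, in a non-phytotoxic, surfactant-containing solvent mixture. Pots were held in a greenhouse for approximately 10 d, then rated for injury from 0, no effect, to 100, complete control.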

[2] = test system: Galium (catchweed bedstraw, Galium aparine); experiment: Test A postemergence; details: Galium, post-emergence, 240 h, Postemergence, read-out: Galium plant response rating (0 to 100 scale); for pest or weed control at 125 g/ha: 125 g ai/ha, visual rating about 10 d after treatment; for pest or weed control at 31 g/ha: 31 g ai/ha, 0 is no effect, 100 is complete control
Procedure, shortened: as §1

[3] = test system: ragweed (common ragweed, Ambrosia elatior); experiment: Test A postemergence; details: Ambrosia artemisiifolia, post-emergence, 240 h, Postemergence, read-out: Ragweed plant response rating (0 to 100 scale); for pest or weed control at 125 g/ha: 125 g ai/ha, visual rating about 10 d after treatment; for pest or weed control at 31 g/ha: 31 g ai/ha, 0 is no effect, 100 is complete control
Procedure, shortened: as §1

[4] = test system: barnyardgrass (Echinochloa crus-galli); experiment: Test A postemergence; details: Echinochloa crus-galli, post-emergence, 240 h, Postemergence; for pest or weed control at 125 g/ha: 125 g ai/ha, visual rating about 10 d after treatment, read-out: Barnyardgrass plant response rating (0 to 100 scale, 0 no effect, 100 complete control); for pest or weed control at 31 g/ha: 31 g ai/ha, 0 is no effect, 100 is complete control, read-out: Barnyardgrass plant response rating (0 to 100 scale)
Procedure, shortened: as §1

[5] = test system: ryegrass, Italian (Italian ryegrass, Lolium multiflorum); experiment: Test A postemergence; details: Lolium multiflorum, post-emergence, 240 h, Postemergence, read-out: Ryegrass, Italian plant response rating (0 to 100 scale); for pest or weed control at 125 g/ha: 125 g ai/ha, visual rating about 10 d after treatment; for pest or weed control at 31 g/ha: 31 g ai/ha, 0 is no effect, 100 is complete control
Procedure, shortened: as §1

[6] = test system: Kochia (Kochia scoparia); experiment: Test A postemergence; details: Bassia scoparia, post-emergence, 240 h, Postemergence, read-out: Kochia plant response rating (0 to 100 scale); for pest or weed control at 125 g/ha: 125 g ai/ha, visual rating about 10 d after treatment; for pest or weed control at 31 g/ha: 31 g ai/ha, 0 is no effect, 100 is complete control
Procedure, shortened: as §1

[7] = test system: pigweed (Amaranthus retroflexus); experiment: Test A postemergence; details: Amaranthus retroflexus, post-emergence, 240 h, Postemergence, read-out: Pigweed plant response rating (0 to 100 scale); for pest or weed control at 125 g/ha: 125 g ai/ha, visual rating about 10 d after treatment; for pest or weed control at 31 g/ha: 31 g ai/ha, 0 is no effect, 100 is complete control
Procedure, shortened: as §1

[8] = test system: giant foxtail (Setaria faberii); experiment: Test A postemergence; details: Setaria faberi, post-emergence, 240 h, Postemergence, read-out: Foxtail, Giant plant response rating (0 to 100 scale); for pest or weed control at 125 g/ha: 125 g ai/ha, visual rating about 10 d after treatment; for pest or weed control at 31 g/ha: 31 g ai/ha, 0 is no effect, 100 is complete control
Procedure, shortened: as §1

[9] = test system: blackgrass (Alopecurus myosuroides); experiment: Test A postemergence; details: Alopecurus myosuroides, post-emergence, 240 h, Postemergence, read-out: Blackgrass plant response rating (0 to 100 scale); for pest or weed control at 125 g/ha: 125 g ai/ha, visual rating about 10 d after treatment; for pest or weed control at 31 g/ha: 31 g ai/ha, 0 is no effect, 100 is complete control
Procedure, shortened: as §1

[10] = test system: corn (Zea mays); experiment: Test A postemergence; details: Zea mays, post-emergence, 240 h, Postemergence, read-out: Corn plant response rating (0 to 100 scale); for plant injury at 125 g/ha: 125 g ai/ha, visual rating about 10 d after treatment; for plant injury at 31 g/ha: 31 g ai/ha, 0 is no effect, 100 is complete control
Procedure, shortened: as §1

[11] = test system: ragweed (common ragweed, Ambrosia elatior); experiment: Test A preemergence; details: Ambrosia artemisiifolia, pre-emergence, 240 h, Preemergence; for pest or weed control at 31 g/ha: 31 g ai/ha, 0 to 100 scale where 0 is no effect and 100 is complete control, read-out: Ragweed plant response rating; for pest or weed control at 125 g/ha: 125 g ai/ha, 0 to 100 scale (0 no effect, 100 complete control), read-out: Plant response rating, Ragweed
Procedure, shortened: as §1

[12] = test system: barnyardgrass (Echinochloa crus-galli); experiment: Test A preemergence; details: Echinochloa crus-galli, pre-emergence, 240 h, Preemergence; for pest or weed control at 31 g/ha: 31 g ai/ha, 0 to 100 scale where 0 is no effect and 100 is complete control, read-out: Barnyardgrass plant response rating; for pest or weed control at 125 g/ha: 125 g ai/ha, 0 to 100 scale (0 no effect, 100 complete control), read-out: Plant response rating, Barnyardgrass
Procedure, shortened: as §1

[13] = test system: ryegrass, Italian (Italian ryegrass, Lolium multiflorum); experiment: Test A preemergence; details: Lolium multiflorum, pre-emergence, 240 h, Preemergence; for pest or weed control at 31 g/ha: 31 g ai/ha, 0 to 100 scale where 0 is no effect and 100 is complete control, read-out: Ryegrass, Italian plant response rating; for pest or weed control at 125 g/ha: 125 g ai/ha, 0 to 100 scale (0 no effect, 100 complete control), read-out: Plant response rating, Ryegrass, Italian
Procedure, shortened: as §1

[14] = test system: Kochia (Kochia scoparia); experiment: Test A preemergence; details: Bassia scoparia, pre-emergence, 240 h, Preemergence; for pest or weed control at 31 g/ha: 31 g ai/ha, 0 to 100 scale where 0 is no effect and 100 is complete control, read-out: Kochia plant response rating; for pest or weed control at 125 g/ha: 125 g ai/ha, 0 to 100 scale (0 no effect, 100 complete control), read-out: Plant response rating, Kochia
Procedure, shortened: as §1

[15] = test system: pigweed (Amaranthus retroflexus); experiment: Test A preemergence; details: Amaranthus retroflexus, pre-emergence, 240 h, Preemergence; for pest or weed control at 31 g/ha: 31 g ai/ha, 0 to 100 scale where 0 is no effect and 100 is complete control, read-out: Pigweed plant response rating; for pest or weed control at 125 g/ha: 125 g ai/ha, 0 to 100 scale (0 no effect, 100 complete control), read-out: Plant response rating, Pigweed
[16] = test system: giant foxtail (Setaria faberii); experiment: Test A preemergence; details: Setaria faberi, pre-emergence, 240 h, Preemergence; for pest or weed control at 31 g/ha: 31 g ai/ha, 0 to 100 scale where 0 is no effect and 100 is complete control, read-out: Foxtail, Giant plant response rating; for pest or weed control at 125 g/ha: 125 g ai/ha, 0 to 100 scale (0 no effect, 100 complete control), read-out: Plant response rating, Foxtail, Giant
Procedure, shortened: as §1

[17] = test system: barnyardgrass (Echinochloa crus-galli); experiment: Test B flooded paddy test; details: Echinochloa crus-galli, 360 h, Flood, 250 g ai/ha; visually evaluated after 13 to 15 d; read-out: Plant response rating, Barnyardgrass (0 to 100 scale where 0 is no effect and 100 is complete control)
Procedure, shortened: (§2)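 2-leaf plants; pots flooded 3 cm over soil; cpd added to paddy water; depth held; greenhouse 13–15 d; visual rating vs controls, 0 = no effect, 100 = complete control.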

[18] = test system: ducksalad (Heteranthera limosa); experiment: Test B flooded paddy test; details: Heteranthera limosa, 360 h, Flood, 250 g ai/ha; visually evaluated after 13 to 15 d; read-out: Plant response rating, Ducksalad (0 to 100 scale where 0 is no effect and 100 is complete control)
Procedure, shortened: as §2

[19] = test system: sedge, umbrella (small-flower umbrella sedge, Cyperus difformis); experiment: Test B flooded paddy test; details: Cyperus difformis, 360 h, Flood, 250 g ai/ha; visually evaluated after 13 to 15 d; read-out: Plant response rating, Sedge, Umbrella (0 to 100 scale where 0 is no effect and 100 is complete control)
Procedure, shortened: as §2

[20] = test system: rice (Oryra sativa); experiment: Test B flooded paddy test; details: Oryza sativa, 360 h, Flood, 250 g ai/ha; visually evaluated after 13 to 15 d; read-out: Plant response rating, Rice (0 to 100 scale where 0 is no effect and 100 is complete control)
Procedure, shortened: as §2

CN1C[C@H](c2ccc(C(F)(F)F)cc2)[C@@H](C(=O)Nc2ccc(F)nc2F)C1=O [Compound 1347]
20%: plant injury at 31 g/ha [1]
90%: pest or weed control at 125 g/ha [4] | pest or weed control at 125 g/ha [7] | pest or weed control at 125 g/ha [8] | pest or weed control at 125 g/ha [11] | pest or weed control at 31 g/ha [14] | pest or weed control at 125 g/ha [14] | pest or weed control at 31 g/ha [15] | pest or weed control at 250 g/ha [17]
50%: pest or weed control at 31 g/ha [7]
0%: pest or weed control at 31 g/ha [5] | pest or weed control at 31 g/ha [13] | pest or weed control at 250 g/ha [19] | pest or weed control at 250 g/ha [20]
40%: pest or weed control at 31 g/ha [3] | pest or weed control at 125 g/ha [5]
98%: pest or weed control at 250 g/ha [18]
100%: pest or weed control at 125 g/ha [12] | pest or weed control at 125 g/ha [15] | pest or weed control at 31 g/ha [16] | pest or weed control at 125 g/ha [16]
60%: pest or weed control at 31 g/ha [6] | pest or weed control at 125 g/ha [9]
30%: plant injury at 125 g/ha [1] | pest or weed control at 31 g/ha [9] | plant injury at 125 g/ha [10] | plant injury at 31 g/ha [10] | pest or weed control at 31 g/ha [11] | pest or weed control at 125 g/ha [13]
80%: pest or weed control at 125 g/ha [6] | pest or weed control at 31 g/ha [12]
70%: pest or weed control at 125 g/ha [2] | pest or weed control at 31 g/ha [2] | pest or weed control at 125 g/ha [3] | pest or weed control at 31 g/ha [4] | pest or weed control at 31 g/ha [8]

Cc1cccc([C@H]2CN(C)C(=O)[C@@H]2C(=O)Nc2ccc(F)nc2F)c1 [Compound 1349]
100%: pest or weed control at 125 g/ha [12] | pest or weed control at 31 g/ha [16] | pest or weed control at 125 g/ha [16]
30%: pest or weed control at 31 g/ha [2] | pest or weed control at 125 g/ha [6]
70%: pest or weed control at 31 g/ha [4]
0%: plant injury at 125 g/ha [1] | plant injury at 31 g/ha [1] | pest or weed control at 125 g/ha [3] | pest or weed control at 31 g/ha [3] | pest or weed control at 31 g/ha [5] | pest or weed control at 31 g/ha [6] | pest or weed control at 125 g/ha [7] | pest or weed control at 31 g/ha [7] | pest or weed control at 31 g/ha [9] | plant injury at 125 g/ha [10] | plant injury at 31 g/ha [10] | pest or weed control at 31 g/ha [11] | pest or weed control at 125 g/ha [11] | pest or weed control at 31 g/ha [13] | pest or weed control at 125 g/ha [13] | pest or weed control at 31 g/ha [14] | pest or weed control at 31 g/ha [15] | pest or weed control at 125 g/ha [15] | pest or weed control at 250 g/ha [19] | pest or weed control at 250 g/ha [20]
95%: pest or weed control at 250 g/ha [18]
80%: pest or weed control at 125 g/ha [8]
20%: pest or weed control at 125 g/ha [5] | pest or weed control at 125 g/ha [9] | pest or weed control at 31 g/ha [12] | pest or weed control at 125 g/ha [14]
60%: pest or weed control at 125 g/ha [2] | pest or weed control at 31 g/ha [8]
90%: pest or weed control at 125 g/ha [4] | pest or weed control at 250 g/ha [17]

Source: patent US12077503B2, “Substituted cyclic amides and their use as herbicides” (FMC CORPORATION, priority 2015, dated 2024)
